# Test results as given in paper PMC3925368 (Bioorganic & medicinal chemistry letters, 2013).
# Assays:
# T. brucei brucei = settings: ip doses as low as 3 × 1 mg/kg; cure = survival more than 30 days beyond controls; cited from earlier work
# [1] = at micromolar concentrations; cited from earlier work
# T. brucei rhodesiense = assay type: in vivo; settings: for Cures: cure = survival for more than 60 days after infection without a parasitemia relapse, cured/treated mice; for In vivo toxicity: 4×50 mg/kg ip in infected mice
# [2] = tested on: T. brucei rhodesiense STIB900; assay type: cell-based, Trypanosoma brucei rhodesiense; settings: STIB900 strain, in vitro
# [3] = 4×50 mg/kg ip on days 3–6 post-infection
Compound,Cures (T. brucei rhodesiense; [3]),In vivo toxicity (T. brucei rhodesiense),other results
"CS(=O)(=O)O.O=C(Nc1ccc(C2=NCCN2)cc1)c1ccc(C(=O)Nc2ccc(C3=NCCN3)cc2)cc1 [Compound 1, N,N'-Bis[4-(4,5-dihydro-1H-imidazol-2-yl)phenyl]terephthalamide dimesylate]",,,Cure of T. brucei brucei-infected mice (T. brucei brucei): completely cured; Mutagenicity [1]: mutagenic
"CS(=O)(=O)O.O=C(Nc1ccc(C2=NCCN2)cc1)c1cccc(C(=O)Nc2ccc(C3=NCCN3)cc2)c1 [Compound 2, N,N'-Bis[4-(4,5-dihydro-1H-imidazol-2-yl)phenyl]isophthalamide dimesylate]",completely curative,,
"CS(=O)(=O)O.O=C(Nc1ccc(C2=NCCN2)cc1)c1ccc(NC(=O)c2ccc(C3=NCCN3)cc2)cc1 [Compound 5, N-[4-(4,5-Dihydro-1H-imidazol-2-yl)phenyl]-4-[[4-(4,5-dihydro-1H-imidazol-2-yl)benzoyl]amino]benzamide dimesylate]",,no in vivo toxicity,
"CS(=O)(=O)O.O=C(Nc1ccc(C2=NCCN2)cc1)c1ccc(-c2ccc(C(=O)Nc3ccc(C4=NCCN4)cc3)cc2)cc1 [Compound 8, N,N'-Bis[4-(4,5-dihydro-1H-imidazol-2-yl)phenyl]biphenyl-4,4’-dicarboxamide dimesylate]",ineffective,,
"CS(=O)(=O)O.O=C(Nc1ccc(C2=NCCN2)cc1)c1ccc(C2=NCCN2)cc1 [Compound 10, N-[4-(4,5-Dihydro-1H-imidazol-2-yl)phenyl]-4-(4,5-dihydro-1H-imidazol-2-yl)benzamide dimesylate]",,no in vivo toxicity,
"O=C(Nc1ccc(C2=NCCN2)cc1)c1ccc(-c2cc3ccc(C4=NCCN4)cc3[nH]2)cc1 [Compound 11, 6-(4,5-Dihydro-1H-imidazol-2-yl)-2-[4-[[[4-(4,5-dihydro-1H-imidazol-2-yl)phenyl]amino]carbonyl]phenyl]indole]",,,T. b. rhodesiense IC50 [2]: single digit nM
"CS(=O)(=O)O.O=C(NCc1ccc(C2=NCCN2)cc1)c1ccc(-c2cc3ccc(C4=NCCN4)cc3[nH]2)cc1 [Compound 12, 6-(4,5-Dihydro-1H-imidazol-2-yl)-2-[4-[[[[4-(4,5-dihydro-1H-imidazol-2-yl)phenyl]methyl]amino]carbonyl]phenyl]indole dimesylate]",ineffective,lethal,"T. b. rhodesiense IC50 [2]: single digit nM; Mean Survival Days (T. brucei rhodesiense; 4×50 mg/kg ip on days 3–6 post-infection, mice with and without parasitemia relapse): toxic ^d"
